For seven compounds, Log10GI50, Log10LC50 and Log10TGI50 results are on record in US20150218212A1, “FLUORINATED EPOXYKETONE-BASED TETRAPEPTIDE COMPOUNDS AND USES THEREOF AS PROTEASOME INHIBITORS” (FLUORINOV PHARMA INC., priority 2012, published 2015).

Bounds are passed on as bounds.

This test relates to HL-60(TB). The test can be described thus: NCI screening panel, HL-60(TB) (Leukemia). It counts as cell-based, human. As for the experimental part: Representative compounds of Formula I were screened using the National Cancer Institute (NCI) screening panel, which consists of a panel of human tumor cell lines, representing leukemia, melanoma, and cancers of the lung, colon, ovary, breast, prostate and renal system.
After 24 h, two plates of each cell line are fixed in situ with TCA, to represent a measurement of the cell population for each cell line at the time of drug addition (Tz). Experimental drugs are solubilised in dimethyl sulfoxide at 400-fold the desired final maximum test concentration and stored frozen prior to use. At the time of drug addition, an aliquot of frozen concentrate is thawed and diluted to twice the desired final maximum test concentration with complete medium containing 50 μg/mL gentamicin. Additional four, 10-fold or ½ log serial dilutions are made to provide a total of five drug concentrations plus control. Aliquots of 100 μl of these different drug dilutions are added to the appropriate microtiter wells already containing 100 μl of medium, resulting in the required final drug concentrations.
Following drug addition, the plates are incubated for an additional 48 h at 37° C., 5% CO2, 95% air, and 100% relative humidity. For adherent cells, the assay is terminated by the addition of cold TCA (trichloroacetic acid). Cells are fixed in situ by the gentle addition of 50 μl of cold 50% (w/v) TCA (final concentration, 10% TCA) and incubated for 60 minutes at 4° C. The supernatant is discarded, and the plates are washed five times with tap water and air dried. Sulforhodamine B (SRB) solution (100 μl) at 0.4% (w/v) in 1% acetic acid is added to each well, and plates are incubated for 10 minutes at room temperature. After staining, unbound dye is removed by washing five times with 1% acetic acid and the plates are air dried. Bound stain is subsequently solubilised with 10 mM trizma base, and the absorbance is read on an automated plate reader at a wavelength of 515 nm. For suspension cells, the methodology is the same except that the assay is terminated by fixing settled cells at the bottom of the wells by gently adding 50 μl of 80% TCA (final concentration, 16% TCA). Using the seven absorbance measurements [time zero, (Tz), control growth, (C), and test growth in the presence of drug at the five concentration levels (Ti)], the percentage growth is calculated at each of the drug concentrations levels. Percentage growth inhibition is calculated as: [(Ti−Tz)/(C−Tz)]×100 for concentrations for which Ti>/=Tz and [(Ti−Tz)/Tz]×100 for concentrations for which Ti<Tz.
Three dose response parameters are calculated for each experimental agent. Growth inhibition of 50% (GI50) is calculated from [(Ti−Tz)/(C−Tz)]×100=50, which is the drug concentration resulting in a 50% reduction in the net protein increase (as measured by SRB staining) in control cells during the drug incubation. The drug concentration resulting in total growth inhibition (TGI) is calculated from Ti=Tz. The LC50 (concentration of drug resulting in a 50% reduction in the measured protein at the end of the drug treatment as compared to that at the beginning) indicating a net loss of cells following treatment is calculated from [(Ti−Tz)/Tz]×100=−50. Values are calculated for each of these three parameters if the level of activity is reached. However, if the effect is not reached or is exceeded, the value for that parameter is expressed as greater or less than the maximum or minimum concentration tested.
On to `CC(C)C[C@H](NC(=O)[C@H](COC(F)F)NC(=O)CN1CCOCC1)C(=O)N[C@@H](COC(F)F)C(=O)N[C@@H](CC(C)C)C(=O)[C@@]1(C)CO1` [Example 1, (2S)—N-[(1S)-1-(difluoromethoxymethyl)-2-[[(1S)-3-methyl-1-[(2R)-2-methyloxirane-2-carbonyl]butyl]amino]-2-oxo-ethyl]-2-[[(2S)-3-(difluoromethoxy)-2-[(2-morpholinoacetyl)amino]propanoyl]amino]-4-methyl-pentanamide], for which the Log10GI50 was −7.49, the Log10LC50 is more than −4.00 and the Log10TGI50 is reported as −6.30.

As to `CC(C)C[C@H](NC(=O)[C@H](COC(F)F)NC(=O)[C@H](COC(F)F)NC(=O)[C@H](CCc1ccccc1)NC(=O)CN1CCOCC1)C(=O)[C@@]1(C)CO1` [Example 7, (2S)-N-[(1S)-1-(difluoromethoxymethyl)-2-[[(1S)-1-(difluoromethoxymethyl)-2-[[(1S)-3-methyl-1-[(2R)-2-methyloxirane-2-carbo-nyl]butyl]amino]-2-oxo-ethyl]amino]-2-oxo-ethyl]-2-[(2-morpholinoacetyl)amino]-4-phenyl-butanamide], the Log10GI50 was −7.46, the Log10LC50 is more than −4.00 and the Log10TGI50 is reported as −6.48.

In turn, `CC(C)C[C@H](NC(=O)[C@H](COC(F)F)NC(=O)CN1CCOCC1)C(=O)N[C@@H](Cc1ccccc1)C(=O)N[C@@H](CC(C)C)C(=O)[C@@]1(C)CO1` [Example 2, (2S)-N-[(1S)-1-benzyl-2-[[(1S)-3-methyl-1-[(2R)-2-methyloxirane-2-carbonyl]butyl]-amino]-2-oxo-ethyl]-2-[[(2S)-3-(difluoromethoxy)-2-[(2-morpholinoacetyl)amino]propanoyl]amino]-4-methyl-pentanamide] displayed a Log10GI50 of −7.55, a Log10LC50 of more than −4.00 and a Log10TGI50 of −6.11.

Regarding `CC(C)C[C@H](NC(=O)[C@H](COC(F)F)NC(=O)[C@H](COC(F)F)NC(=O)[C@H](COC(F)F)NC(=O)CN1CCOCC1)C(=O)[C@@]1(C)CO1` [Example 17, (2S)-3-(difluoromethoxy)-N-[(1S)-1-(difluoromethoxymethyl)-2-[[(1S)-1-(difluoro-methoxymethyl)-2-[[(1S)-3-methyl-1-[(2R)-2-methyloxirane-2-carbonyl]butyl]amino]-2-oxo-ethyl]amino]-2-oxo-ethyl]-2-[(2-mor-pholinoacetyl)amino]-propanamide], the Log10GI50 is reported as −6.70, the Log10LC50 is recorded as more than −4.00 and the Log10TGI50 was −5.87.

In the case of `CC(C)C[C@H](NC(=O)[C@H](COC(F)F)NC(=O)CN1CCOCC1)C(=O)N[C@@H](COC(F)F)C(=O)N[C@@H](Cc1ccccc1)C(=O)[C@@]1(C)CO1` [Example 4, (2S)-N-[(1S)-2-[[(1S)-1-benzyl-2-[(2R)-2-methyloxiran-2-yl]-2-oxo-ethyl]amino]-1-(difluoromethoxymethyl)-2-oxo-ethyl]-2-[[(2S)-3-(difluoromethoxy)-2-[(2-mor-pholinoacetyl)amino]propanoyl]amino]-4 methyl-pentanamide], the Log10GI50 is recorded as −7.44, the Log10LC50 is recorded as more than −4.00 and the Log10TGI50 is −6.44.

The compound `CC(C)C[C@H](NC(=O)[C@H](Cc1ccccc1)NC(=O)[C@H](COC(F)F)NC(=O)[C@H](COC(F)F)NC(=O)CN1CCOCC1)C(=O)[C@@]1(C)CO1` [Example 11, (2S)-2-[[(2S)-3-(difluoromethoxy)-2-[[(2S)-3-(difluoromethoxy)-2-[(2-morpholinoacetyl)-amino]propanoyl]amino]propanoyl]amino]-N-[(1S)-3-methyl-1-[(2R)-2-methyloxirane-2-carbonyl]butyl]-3-phenyl-propanamide] gave a Log10GI50 of −7.46, a Log10LC50 of more than −4.00 and a Log10TGI50 of −6.42.

`CC(C)C[C@H](NC(=O)[C@H](COC(F)F)NC(=O)CN1CCOCC1)C(=O)N[C@@H](Cc1ccccc1)C(=O)N[C@@H](Cc1ccccc1)C(=O)[C@@]1(C)CO1` [Example 3, (2S)-N-[(1S)-1-benzyl-2-[[(1S)-1-benzyl-2-[(2R)-2-methyloxiran-2-yl]-2-oxo-ethyl]amino]-2-oxo-ethyl]-2-[[(2S)-3-(difluoromethoxy)-2-[(2-morpholinoacetyl)-amino]propanoyl]amino]-4-methyl-pentan-amide] came in with a Log10GI50 of −7.83, a Log10LC50 of more than −4.00 and a Log10TGI50 of −6.67.
